According to patent US4755594A, “N^6 -substituted adenosines” (Warner-Lambert Company, priority 1986, dated 1988):

Columns and labels:
adenosine A2 receptor = biological target: T1, adenosine A2 receptor (Rattus norvegicus, UniProt P30543); test: Adenosine Receptor Binding--A2 Receptor Affinity (RBA2), [3H]NECA, striatal membranes; conditions: read-out: RBA-2 IC50
T1 construct: Brains were thawed and then kept on ice while the striata were dissected out; tissue Pel-Freez (Rogers, Ark.); host or cells: striata of Sprague-Dawley rats (Long-Evans hooded rats gave essentially identical results)
Method: Adenosine Receptor Binding--A2 Receptor Affinity (RBA2)
Brains from 200-500 g mixed sex Sprague-Dawley rats were purchased from Pel-Freez (Rogers, Ark.). Fresh brains from male Long-Evans hooded rats (Blue Spruce Farms, Altamont, NY) gave essentially identical results. Brains were thawed and then kept on ice while the striata were dissected out. Striata were disrupted in 10 vol of ice-cold 50 mM Tris.HCl (pH 7.7 at 25° C., pH 8.26 at 5° C.) (Tris) for 30 seconds in a Polytron PT-10 (Brinkmann) at setting 5. The suspension was centrifuged at 50,000 xg for ten minutes, the supernatant discarded, the pellet resuspended in 10 vol ice-cold Tris as above, recentrifuged, resuspended at 1 g/5ml, and stored in plastic vials at -70° C. (stable for at least six months). When needed, tissue was thawed at room temperature, disrupted in a Polytron, and kept on ice until used.
All incubations were for 60 minutes at 25° C. in 12×75 mm glass tubes containing 1 ml Tris with 5 mg original tissue weight of rat weight of rat striatal membranes, 4 nM [^3 H]--N-ethyl adenosine-5'-carboxamide ([^3 H]NECA), 50 nM N^6 -cyclopentyladenosine (to eliminate A1 receptor binding), 10 mM MgCl2, 0.1 units/ml of adenosine deaminase and 1% dimethylsulfoxide. N^6 -Cyclopentyladenosine was dissolved at 10 mM in 0.02N HCl and diluted in Tris. Stock solutions and dilutions of N^6 -cyclopentyladenosine could be stored at -20° C. for several months. Test compounds were dissolved at 10 mM in dimethylsulfoxide on the same day as the experiment, and diluted in dimethylsulfoxide to 100×the final incubation concentration. Control incubations received an equal volume (10 μl) of dimethylsulfoxide; the resulting concentration of dimethylsulfoxide had no effect on binding. [^3 H]NECA was diluted to 40 nM in Tris. The membrane suspension (5 mg/0.79 ml) contained sufficient MgCl2 and adenosine deaminase to give 10 mM and 0.1 units/ml, respectively, final concentration in the incubation. […] After all additions, the rack of tubes was vortexed, and the tubes were then incubated for 60 min at 25° C. in a shaking water bath. The rack of tubes was vortexed an additional time halfway through the incubation.
Incubations were terminated by filtration through 2.4 cm GF/B filters under reduced pressure. Each tube was filtered as follows: the contents of the tube were poured on the filter, 4 ml of ice-cold Tris were added to the tube and the contents poured onto the filter, and the filter was washed twice with 4 ml of ice-cold Tris. The filtration was complete in about twelve seconds. Filters were put in scintillation vials, 8 ml of Formula 947 scintillation fluid added, and the vials left overnight, shaken, and counted in a liquid scintillation counter at 40% efficiency.
Nonspecific binding was defined as binding in the presence of 100 μM N^6 -cyclopentyladenosine, and specific binding was defined as total binding minus nonspecific binding. The IC50 was calculated by weighted nonlinear least squares curve-fitting to the mass-action equation. [formula] where Y is cpm bound
T is cpm total binding without drug
S is cpm specific binding without drug
D is the concentration of drug and
K is the IC50 of the drug
Weighting factors were calculated under the assumption that the standard deviation was proportional to the predicted value of Y. Nonspecific binding was treated as a very large (infinite) concentration of drug in the computer analysis.

adenosine A1 receptor = biological target: T2, adenosine A1 receptor (Rattus norvegicus, UniProt P25099); test: Adenosine Receptor Binding--A1 Receptor Affinity (RBA1), [3H]-CHA, whole brain membranes; conditions: read-out: RBA-1 IC50
T2 construct: Whole brain minus cerebellum and brainstem from male Long-Evans rats; from tissue; host or cells: whole brain minus cerebellum and brainstem, male Long-Evans rats
T2 sequence (P25099 1-326): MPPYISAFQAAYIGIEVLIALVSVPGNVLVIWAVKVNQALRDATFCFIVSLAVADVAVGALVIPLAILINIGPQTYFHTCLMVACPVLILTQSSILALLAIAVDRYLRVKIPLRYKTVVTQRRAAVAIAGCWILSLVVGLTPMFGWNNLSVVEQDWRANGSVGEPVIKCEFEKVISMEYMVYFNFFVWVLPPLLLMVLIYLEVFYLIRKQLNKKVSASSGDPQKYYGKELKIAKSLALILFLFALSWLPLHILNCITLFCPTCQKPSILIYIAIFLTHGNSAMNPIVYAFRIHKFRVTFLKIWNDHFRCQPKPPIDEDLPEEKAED
Method: Adenosine Receptor Binding--A1 Receptor Affinity (RBA1 )
Whole brain minus cerebellum and brainstem from male Long-Evans rats (150-200 g) was homogenized in 30 volumes of ice-cold 0.05M Tris-HCl buffer pH 7.7 using a Brinkman Polytron PT-10, (setting number 6 for 20 seconds) and centrifuged for ten minutes at 20,000 xg (Sorvall RC-2), 4° C. The supernatant was discarded, and the pellet was resuspended and centrifuged as before. The pellet was resuspended in 20 ml Tris-HCl buffer containing two International Units/ml of adenosine deaminase (Sigma type III from calf intestinal mucosa), incubated at 37° C. for 30 minutes, then subsequently at 0° C. for ten minutes. The homogenate was again centrifuged, and the final pellet was resuspended in ice-cold 0.05M Tris-HCl buffer pH 7.7 to a concentration of 20 mg/ml original wet tissue weight and used immediately.
Tissue homogenate (10 mg/ml) was incubated in 0.05M Tris-HCl buffer pH 7.7 containing 1.0 nM [^3 H]--N^6 -cyclohexyladenosine ([^3 H]--CHA) with or without test agents in triplicate for one hour at 25° C. Incubation volume was 2 ml. Unbound [^3 H]--CHA was separated by rapid filtration under reduced pressure through Whatman glass fiber (GF/B) filters. The filters were rinsed three times with 5 ml of ice cold 0.05M Tris-HCl buffer pH 7.7. The radio-labeled ligand retained on the filter was measured by liquid scintillation spectrophotometry after shaking the filters for one hour or longer on a mechanical shaker in 10 ml of Beckman Ready-Solv HP scintillation cocktail.
Nonspecific binding was defined as the binding which occurred in the presence of 1 mM theophylline. The concentration of test agent which inhibited 50% of the specific binding (IC50) was determined by nonlinear computer curve fit. The Scatchard plot was calculated by linear regression of the line obtained by plotting the amount of radioligand bound (pmoles/gram of tissue) [formula] Since the amount of radioligand bound was a small fraction of the total amount added, free radioligand was defined as the concentration of (nM) of radioligand added to the incubation mixture. The Hill coefficient was calculated by linear regression of the line obtained by plotting the log of the bound radioligand vs the log of the [formula] The maximal number of binding sites (Bmax) was calculated from the Scatchard plot.

[1] = Activity and screen test, rat orally: inhibition of motor activity; format: in vivo; conditions: orally (PO)
[2] = Activity and screen test, rat orally: screen test; format: in vivo; conditions: orally (PO)
Method: A two part testing procedure is started one hour postinjection. First, the screen test (ST) is performed (see Pharmac. Biochem. Behav. 6, 351-353, 1977). Briefly this test consists of placing mice on individual wire screens which are then rotated 180 degrees at the start of a 60 second observation period. The number of mice falling off the inverted screen is recorded.
The data obtained from the screen test are expressed as percent of mice falling off the screen. Data derived from locomotor activity of drug treated mice are compared to the activity of vehicle treated animals and are expressed as percent inhibition of spontaneous locomotion. All percentages reported for inhibition of locomotion (LI) are based upon data accumulated for one hour. Both phases of testing are graded: A=60-100%; C=31-59%; and N=0-30%. An overall dose rating is obtained by the following criteria: […]

T1 sequence (P30543 whole entry): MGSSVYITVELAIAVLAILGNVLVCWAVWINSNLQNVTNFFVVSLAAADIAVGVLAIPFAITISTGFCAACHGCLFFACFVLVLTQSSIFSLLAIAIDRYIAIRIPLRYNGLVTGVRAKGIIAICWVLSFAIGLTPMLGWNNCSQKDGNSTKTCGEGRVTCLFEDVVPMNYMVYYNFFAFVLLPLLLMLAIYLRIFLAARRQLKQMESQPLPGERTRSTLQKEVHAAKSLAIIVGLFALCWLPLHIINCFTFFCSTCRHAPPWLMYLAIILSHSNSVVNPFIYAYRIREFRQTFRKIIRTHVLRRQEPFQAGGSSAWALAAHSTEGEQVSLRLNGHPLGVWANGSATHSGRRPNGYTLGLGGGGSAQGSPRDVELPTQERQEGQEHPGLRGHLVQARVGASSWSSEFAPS

## [O-][n+]1cnc2c(ncn2[C@@H]2O[C@H](CO)[C@@H](O)[C@H]2O)c1NCC1(c2ccccc2)CC1 [Example 4, N6-((1-Phenylcyclopropyl)methyl)adenosine-N1-oxide]
Adenosine A2 receptor
  IC50: 35 µM
Adenosine A1 receptor
  IC50: 6.5 µM
[1]; 1 mg/kg
  Inhibition of motor activity: 2%
[1]; 3 mg/kg
  Inhibition of motor activity: 15%
[1]; 10 mg/kg
  Inhibition of motor activity: 2%
[2]; 1 mg/kg
  Inhibition of screen test failure: 11%
[2]; 3 mg/kg
  Inhibition of screen test failure: 0%
[2]; 10 mg/kg
  Inhibition of screen test failure: 0%
